According to the SangsterLogP compilation:

Experiment: method code SF-AS, from DOI: 10.1016/0223-5234(96)88212-2
Details: pH 7.4

| SMILES | logD |
| --- | --- |
| Clc1ccccc1N1CCN(CCn2nnc3ccccc32)CC1 | 3.35 |
| Clc1ccccc1N1CCN(CCCOn2nnc3ccccc32)CC1 | 3.6 |
